# Measurements as given in patent US20210379066A1, “COMBINATIONS OF POSITIVE ALLOSTERIC MODULATORS AND NICOTINIC ACETYLCHOLINE RECEPTOR AGONISTS FOR TREATING OCULAR CONDITIONS” (Oyster Point Pharma, Inc., priority 2018, published 2021).
# Where “and” joins values, the source holds several entries; their conditions need not be identical. Identical values can stand only once. Like-named read-outs stand apart in the source and are kept apart here.
# Tests used:
# human nAChR alpha4beta2 = molecular target: T1, human nAChR alpha4beta2 (Homo sapiens, UniProt P17787+P43681); test: Agonist activity, two-electrode voltage clamp in Xenopus oocytes (Examples 2 and 5); format: cell-based; details: versus ACh response
# T1 construct: expressed in transfected cells; host or cells: Xenopus laevis oocytes (cDNA injection)
# Experimental: (§1) All experiments were carried out at human nAChRs expressed in Xenopus oocytes using the method of cDNA expression. Xenopus oocytes were prepared and injected using standard procedures.
# (§2) Briefly, ovaries were harvested from Xenopus Laevis females that have been deeply anesthetized by cooling at 4° C. and Tricaine methanesulfonate (MS-222 at a concentration of 150 mg/L) in sodium bicarbonate (300 mg/L). Once anesthetized the animal was decapitated and pithed following the rules of animal rights from the Geneva canton. A small piece of ovary was isolated for immediate preparation while the remaining part was placed at 4° C. in a sterile Barth solution containing in mM NaCl 88, KCl 1, NaHCO32.4, HEPES 10, MgSO4.7H2O 0.82, Ca(NO3)2.4H2O 0.33, CaCl2.6H2O 0.41, at pH 7.4, and supplemented with 20 μg/ml of kanamycin, 100 unit/ml penicillin. All recordings were performed at 18° C. and cells superfused with OR2 medium containing in mM: NaCl 88, KCl 2.5, HEPES 5, CaCl2.2H2O 1.8, MgCl2.6H2O 1, pH 7.4.
# (§3) Currents evoked by ACh or other agonists were recorded using an automated process equipped with standard two-electrode voltage-clamp configuration (TEVC). Data were captured and analyzed using a HiQScreen proprietary data acquisition and analysis software running under Matlab (Mathworks Inc.).
# (§4) See Example 1. […] The test concentration of acetylcholine chloride was 1280 micromolar.
# (§5) Injections of cDNAs encoding for the human alpha3beta4, alpha3alpha5beta4, alpha4beta2, and alpha7 were performed in at least 95 oocytes were performed using a proprietary automated injection and receptor expression examined at least two days later. Oocytes were poked with two electrodes and their membrane potential maintained, unless indicated, at −80 mV throughout the experiment.
# (§6) A protocol to determine agonistic activity in the oocytes expressing the nAChRs was developed. The cells were exposed to a series of increasing concentrations of a compound agonist for 10 seconds each at two minute intervals. The current evoked from exposure to the agonist at each concentration was recorded. For oocytes expressing alpha7 nAChRs, exposure to the agonist was reduced to 5 seconds. This process was repeated for each agonist tested against each type of nAChR expressing cell.
# (§7) To evaluate the agonistic properties of compound 1 hemi-galactarate dihydrate a protocol of brief exposures to a series of growing concentrations of compound 1 hemi-galactarate dihydrate was used.
# (§8) Agonist Preparation: See Example 1. […] The test concentration of acetylcholine chloride was 1280 micromolar.
# as §5, with “Experimental Procedures: Injections” for “Injections”, “alpha4beta2, alpha4alpha6beta2,” for “alpha4beta2,”, “oocytes” for “oocytes were performed”, “injection device. Cellular” for “injection and”, “expression was” for “expression”
# as §6, with “developed. Oocytes expressing a nAChR subtype were exposed to a brief test pulse of acetylcholine (1280 micromolar) while the holding current and response was evaluated. Cells displaying robust currents were washed for 90 seconds.” for “developed.”, “were then” for “were”, “nAChR” for “compound”, “intervals. The nAChR agonist test concentrations were 0.1, 0.3, 1, 3, 10, 30, 100, 300 (micromolar).” for “intervals.”
# human nAChR alpha7 = molecular target: T2, human nAChR alpha7 (Homo sapiens, UniProt P36544); test: as above; format: cell-based; details: versus ACh response
# T2 construct: expressed in transfected cells; host or cells: Xenopus laevis oocytes (cDNA injection)
# Experimental: as §1, §2, §3, §4, §5, §6, §7, §8
# as §5, with “Experimental Procedures: Injections” for “Injections”, “alpha4beta2, alpha4alpha6beta2,” for “alpha4beta2,”, “oocytes” for “oocytes were performed”, “injection device. Cellular” for “injection and”, “expression was” for “expression”
# as §6, with “developed. Oocytes expressing a nAChR subtype were exposed to a brief test pulse of acetylcholine (1280 micromolar) while the holding current and response was evaluated. Cells displaying robust currents were washed for 90 seconds.” for “developed.”, “were then” for “were”, “nAChR” for “compound”, “intervals. The nAChR agonist test concentrations were 0.1, 0.3, 1, 3, 10, 30, 100, 300 (micromolar).” for “intervals.”
# human nAChR alpha3beta4 = molecular target: T3, human nAChR alpha3beta4 (Homo sapiens, UniProt P30926+P32297); test: as above; format: cell-based; details: versus ACh response
# T3 construct: expressed in transfected cells; host or cells: Xenopus laevis oocytes (cDNA injection)
# Experimental: as §1, §2, §3, §4, §5, §6, §7, §8
# as §5, with “Experimental Procedures: Injections” for “Injections”, “alpha4beta2, alpha4alpha6beta2,” for “alpha4beta2,”, “oocytes” for “oocytes were performed”, “injection device. Cellular” for “injection and”, “expression was” for “expression”
# as §6, with “developed. Oocytes expressing a nAChR subtype were exposed to a brief test pulse of acetylcholine (1280 micromolar) while the holding current and response was evaluated. Cells displaying robust currents were washed for 90 seconds.” for “developed.”, “were then” for “were”, “nAChR” for “compound”, “intervals. The nAChR agonist test concentrations were 0.1, 0.3, 1, 3, 10, 30, 100, 300 (micromolar).” for “intervals.”
# [1] = molecular target: T4, human nAChR alpha3alpha5beta4 (Homo sapiens, UniProt P30532+P30926+P32297); test: as above; format: cell-based; details: versus ACh response
# T4 construct: expressed in transfected cells; host or cells: Xenopus laevis oocytes (cDNA injection)
# Experimental: as §1, §2, §3, §4, §5, §6, §7, §8
# as §5, with “Experimental Procedures: Injections” for “Injections”, “alpha4beta2, alpha4alpha6beta2,” for “alpha4beta2,”, “oocytes” for “oocytes were performed”, “injection device. Cellular” for “injection and”, “expression was” for “expression”
# as §6, with “developed. Oocytes expressing a nAChR subtype were exposed to a brief test pulse of acetylcholine (1280 micromolar) while the holding current and response was evaluated. Cells displaying robust currents were washed for 90 seconds.” for “developed.”, “were then” for “were”, “nAChR” for “compound”, “intervals. The nAChR agonist test concentrations were 0.1, 0.3, 1, 3, 10, 30, 100, 300 (micromolar).” for “intervals.”
# [2] = Pharmacokinetics in human subjects after 28 days of intranasal administration (Example 7); format: in vivo
# Experimental: Blood plasma for the patients was collected on Day 29 predose (time 0) and after a series of time points (10 min, 20 min, 30 min, 1 hr, 2 hrs, 4 hrs, 5 hrs, 6 hrs, 7 hrs, 8 hrs, and 24 hrs) after a single administration of drug. The blood plasma was analyzed for Compound 1.
# The following pharmacokinetic parameters for Compound 1 were calculated: • Cmax: Maximum observed concentration, observed by inspection of individual study participant plasma concentration time plots. • Tmax: Time of maximum observed concentration, obtained directly from the observed concentration time data. • AUClast: The area under the plasma concentration time curve, from time 0 to the last measurable non-zero concentration, calculated by a combination of linear and logarithmic trapezoidal methods (Linear up/log down method). • AUC0-4h: The area under the plasma concentration time curve, from time 0 to the 4 h time point, calculated by a combination of linear and logarithmic trapezoidal methods (Linear up/log down method). • AUCinf: The area from zero time (pre-dose) extrapolated to infinite time (AUCinf) will be calculated as follows: AUCinf=AUClast+Cz/λz. • AUC % Extrap: The percentage of AUCinf obtained by extrapolation (AUC % Extrap) will be calculated as follows:
# [formula] • Half-life: Terminal elimination half-life.
# [3] = Max, N=7, Day 29 dose after 28 days BID
# [4] = Min, N=7, Day 29 dose after 28 days BID
# [5] = human, plasma, other: intranasal spray, […] Compound 1, 50 μL spray in each nostril, Max, N=7, Day 29 dose after 28 days BID
# [6] = human, plasma, other: intranasal spray, […] Compound 1, 50 μL spray in each nostril, Mean, N=7, Day 29 dose after 28 days BID
# [7] = human, plasma, other: intranasal spray, […] Compound 1, 50 μL spray in each nostril, Median, N=7, Day 29 dose after 28 days BID
# T2 sequence (P36544 23-502): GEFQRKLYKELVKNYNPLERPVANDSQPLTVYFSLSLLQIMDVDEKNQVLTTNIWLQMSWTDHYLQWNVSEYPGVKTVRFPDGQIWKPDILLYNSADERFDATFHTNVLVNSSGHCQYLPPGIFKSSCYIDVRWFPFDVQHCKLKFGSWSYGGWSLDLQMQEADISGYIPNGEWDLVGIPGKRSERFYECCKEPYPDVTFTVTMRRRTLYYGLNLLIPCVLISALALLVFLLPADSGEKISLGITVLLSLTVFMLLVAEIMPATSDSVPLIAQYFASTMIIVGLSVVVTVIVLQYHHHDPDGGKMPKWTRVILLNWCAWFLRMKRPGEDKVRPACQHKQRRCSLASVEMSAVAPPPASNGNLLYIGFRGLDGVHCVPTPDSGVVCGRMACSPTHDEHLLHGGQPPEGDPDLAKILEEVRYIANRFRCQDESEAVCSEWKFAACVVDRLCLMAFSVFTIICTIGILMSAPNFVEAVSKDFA
# T1 sequence (P43681 29-627 limits assumed): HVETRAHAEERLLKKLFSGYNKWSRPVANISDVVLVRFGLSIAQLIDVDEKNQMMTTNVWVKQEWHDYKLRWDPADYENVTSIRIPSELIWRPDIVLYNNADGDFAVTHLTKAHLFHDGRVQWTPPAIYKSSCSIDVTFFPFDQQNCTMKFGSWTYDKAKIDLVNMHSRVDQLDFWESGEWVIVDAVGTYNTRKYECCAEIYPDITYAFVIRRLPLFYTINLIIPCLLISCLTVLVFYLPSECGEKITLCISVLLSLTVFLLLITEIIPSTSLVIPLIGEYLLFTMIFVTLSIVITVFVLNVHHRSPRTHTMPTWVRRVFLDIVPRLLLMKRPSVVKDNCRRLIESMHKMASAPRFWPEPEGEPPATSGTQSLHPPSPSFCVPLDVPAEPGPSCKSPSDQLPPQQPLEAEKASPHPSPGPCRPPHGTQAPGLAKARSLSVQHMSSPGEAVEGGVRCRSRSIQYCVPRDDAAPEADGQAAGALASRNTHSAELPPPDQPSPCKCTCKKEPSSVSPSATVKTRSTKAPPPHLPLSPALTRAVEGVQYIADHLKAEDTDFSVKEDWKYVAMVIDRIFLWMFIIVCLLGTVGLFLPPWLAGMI
# T1 sequence (P17787 26-502): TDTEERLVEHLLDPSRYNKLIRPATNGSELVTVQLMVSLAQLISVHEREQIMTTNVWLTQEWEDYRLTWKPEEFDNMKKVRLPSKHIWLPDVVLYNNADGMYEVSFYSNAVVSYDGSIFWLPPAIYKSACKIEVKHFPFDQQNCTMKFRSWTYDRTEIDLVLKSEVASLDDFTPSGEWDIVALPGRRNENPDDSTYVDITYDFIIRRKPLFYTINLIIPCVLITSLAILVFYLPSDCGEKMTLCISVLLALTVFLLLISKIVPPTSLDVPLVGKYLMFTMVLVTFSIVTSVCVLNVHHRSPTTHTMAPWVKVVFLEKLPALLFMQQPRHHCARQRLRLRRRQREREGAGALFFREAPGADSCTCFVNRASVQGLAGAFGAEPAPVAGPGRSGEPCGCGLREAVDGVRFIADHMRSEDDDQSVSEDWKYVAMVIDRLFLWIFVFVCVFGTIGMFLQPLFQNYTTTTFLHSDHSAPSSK
# T3 sequence (P32297 32-505): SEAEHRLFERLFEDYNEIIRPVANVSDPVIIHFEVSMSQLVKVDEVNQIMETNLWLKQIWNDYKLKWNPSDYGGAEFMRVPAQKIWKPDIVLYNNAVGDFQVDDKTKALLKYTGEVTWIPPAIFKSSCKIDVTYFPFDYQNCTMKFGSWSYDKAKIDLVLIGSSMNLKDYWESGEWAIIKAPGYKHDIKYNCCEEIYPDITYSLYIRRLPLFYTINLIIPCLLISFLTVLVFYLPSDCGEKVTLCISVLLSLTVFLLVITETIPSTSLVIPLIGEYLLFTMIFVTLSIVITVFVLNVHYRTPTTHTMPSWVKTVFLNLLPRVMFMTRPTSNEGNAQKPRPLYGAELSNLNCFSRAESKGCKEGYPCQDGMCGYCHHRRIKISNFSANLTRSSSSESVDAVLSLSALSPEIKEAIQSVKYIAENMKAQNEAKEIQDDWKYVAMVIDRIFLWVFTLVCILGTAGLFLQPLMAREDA
# T3 sequence (P30926 22-498): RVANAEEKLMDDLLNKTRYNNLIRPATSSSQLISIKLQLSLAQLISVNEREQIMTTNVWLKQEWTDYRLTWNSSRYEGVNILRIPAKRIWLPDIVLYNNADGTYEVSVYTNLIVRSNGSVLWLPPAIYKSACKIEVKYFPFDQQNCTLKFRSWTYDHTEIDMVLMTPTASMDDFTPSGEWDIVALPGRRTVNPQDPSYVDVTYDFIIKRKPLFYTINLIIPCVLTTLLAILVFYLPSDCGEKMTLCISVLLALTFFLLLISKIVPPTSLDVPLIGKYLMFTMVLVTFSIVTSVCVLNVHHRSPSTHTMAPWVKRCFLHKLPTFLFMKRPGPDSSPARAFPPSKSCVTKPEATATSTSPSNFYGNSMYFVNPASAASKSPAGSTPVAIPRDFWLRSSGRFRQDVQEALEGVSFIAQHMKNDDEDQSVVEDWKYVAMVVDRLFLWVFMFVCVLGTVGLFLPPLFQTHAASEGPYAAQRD
# T4 sequence (P32297 32-505): as the sequence (P32297 32-505) above
# T4 sequence (P30532 23-468): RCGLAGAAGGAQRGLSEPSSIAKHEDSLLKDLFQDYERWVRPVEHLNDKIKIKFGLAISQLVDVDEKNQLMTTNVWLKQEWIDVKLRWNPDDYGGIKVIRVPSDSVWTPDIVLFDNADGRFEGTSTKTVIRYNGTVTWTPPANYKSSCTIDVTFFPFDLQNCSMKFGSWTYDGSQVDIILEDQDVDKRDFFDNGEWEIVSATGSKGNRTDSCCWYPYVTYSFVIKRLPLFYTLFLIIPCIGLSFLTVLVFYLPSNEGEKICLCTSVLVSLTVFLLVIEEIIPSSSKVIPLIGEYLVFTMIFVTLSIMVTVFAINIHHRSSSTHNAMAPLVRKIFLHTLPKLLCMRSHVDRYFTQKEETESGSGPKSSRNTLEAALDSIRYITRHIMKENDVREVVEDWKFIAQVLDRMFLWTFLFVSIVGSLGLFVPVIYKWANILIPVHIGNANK
# T4 sequence (P30926 22-498): as the sequence (P30926 22-498) above
smiles,measurement,setting,value
"C(=C\[C@H]1CCNC1)/c1cncnc1 [Compound 1, (R)-5-((E)-2-pyrrolidin-3-ylvinyl)pyrimidine]",agonist character,human nAChR alpha4beta2,full agonist
same,agonist character,human nAChR alpha7,weak partial agonist
same,agonist character,human nAChR alpha3beta4,full agonist
same,agonist character,[1],full agonist
same,AUC % Extrap,[2]; [3],41.1%
same,Tmax,[2]; [3],1.2 h
same,AUC % Extrap,"[2]; Mean, N=7, Day 29 dose after 28 days BID",21.3%
same,AUC % Extrap,"[2]; Median, N=7, Day 29 dose after 28 days BID",23.3%
same,AUC % Extrap,[2]; [4],3.69% and 3.67%
same,AUCinf,[2]; [4],1.21 ng·h/mL
same,AUClast,[2]; [4],0.801 ng·h/mL
same,Cmax,[2]; [4],0.621 ng/mL
same,Tmax,[2]; [4],0.17 h
same,half-life,[2]; [4],0.852 h
same,half-life,"[2]; human, plasma, inhaled or intranasal, […] Compound 1, 50 μL spray in each nostril, Mean, N=7, Day 29 single intranasal dose of […] Compound 1 (2.0% hemigalactarate salt) after 28 days BID, 50 μL per nostril, read-out: Half-life (converted)",1.58 ± 0.818 h
same,Cmax,"[2]; human, plasma, other: intranasal spray, […] Compound 1, 50 μL spray in each nostril, Max (individual subject maximum), N=7, Day 29 dose after 28 days BID, read-out: Cmax",5.49 ng/mL
same,AUC(0-inf),[2]; [5],12.5 ng·h/mL
same,AUC(0-t),[2]; [5],12.1 ng·h/mL
same,half-life,"[2]; human, plasma, other: intranasal spray, […] Compound 1, 50 μL spray in each nostril, Max, N=7, Day 29 dose after 28 days BID, read-out: Half-life (converted)",2.83 h
same,AUC(0-inf),[2]; [6],6.22 ± 4.63 ng·h/mL
same,AUC(0-t),[2]; [6],5.22 ± 4.52 ng·h/mL
same,Cmax,"[2]; human, plasma, other: intranasal spray, […] Compound 1, 50 μL spray in each nostril, Mean, N=7, Day 29 dose after 28 days BID, read-out: Cmax",2.26 ± 1.96 ng/mL
same,Tmax,"[2]; human, plasma, other: intranasal spray, […] Compound 1, 50 μL spray in each nostril, Mean, N=7, Day 29 dose after 28 days BID, read-out: Tmax",0.7 h
same,AUC(0-inf),[2]; [7],5.67 ng·h/mL
same,AUC(0-t),[2]; [7],4.35 ng·h/mL
same,Cmax,"[2]; human, plasma, other: intranasal spray, […] Compound 1, 50 μL spray in each nostril, Median, N=7, Day 29 dose after 28 days BID, read-out: Cmax",1.35 ng/mL
same,half-life,"[2]; human, plasma, other: intranasal spray, […] Compound 1, 50 μL spray in each nostril, Median, N=7, Day 29 dose after 28 days BID, read-out: Half-life (converted)",1.12 h
same,Tmax,"[2]; human, plasma, other: intranasal spray, […] Compound 1, 50 μL spray in each nostril, Median, N=7, Day 29 dose after 28 days BID, read-out: Tmax",0.5 h
same,C0,"[2]; human, plasma, other: intranasal spray, […] Compound 1, 50 μL spray in each nostril, Day 29 predose after 28 days BID, detected in 4 out of 7 subjects, read-out: mean plasma concentration at time zero (predose)",0.264 ng/mL
same,concentration at 1 h,"[2]; human, plasma, other: intranasal spray, […] Compound 1, 50 μL spray in each nostril, at 1 h after intranasal administration on Day 29, read-out: peak of mean plasma exposure",2.07 ng/mL
same,concentration at 24 h,"[2]; human, plasma, other: intranasal spray, […] Compound 1, 50 μL spray in each nostril, no subject above lower limit of quantification, read-out: plasma concentration at 24 h post administration",< 0.2 ng/mL
same,fraction cleared from systemic circulation before the next administration,"[2]; if administered every 12 hours (4 half-lives), from maximum individual half-life",> 94%
